PMC4979516, “Quinazoline-based tricyclic compounds that regulate programmed cell death, induce neuronal differentiation, and are curative in animal models for excitotoxicity and hereditary brain disease” (Cell Death Discovery, 2015)

System: R6-2 mice
Test: R6-2 transgenic mouse model for Huntington disease (lifespan, behavior)
Format: in vivo
Details: pilot studies, s.c. daily 5 days per week; MGV-1 15 mg/kg, PK 11195 15 mg/kg, MGV-2 15 and 7.5 mg/kg
Excerpt: Huntington disease in humans is a hereditary disease including neurodegeneration leading to degradation in motor performance, continual involuntary movements, tremors, cardiovascular and respiratory impairments, and finally leading to death of the patients having the disease.[88] For this study, R6-2 mice (~120 CAG repeats B6CBA-Tg(HDexon1)62 Gpb/3J) mice were used as a transgenic mouse model for Huntington disease. For this purpose, mice obtained from the Jackson Laboratory were bred. In particular, males hemizygous for Tg(HDexon1)62 Gpb, and females from the wild-type background strain B6CBAF1/J, were bred according to the protocol of Jackson Laboratory.
For tests of drug efficacy, male offspring hemizygous for Tg(HDexon1)62 Gpb were used to determine drug effect on lifespan, motor activity, and general well-being of the animals. Drug treatment for this study consisted of daily (5 continuous days per week) subcutaneous injections in the neck area of mice with 20 μl of: the drug vehicle DMSO (vehicle control), 2-Cl-MGV-1(7.5 mg/kg) and 2-Cl-MGV-2 (7.5 mg/kg). […] Quantities were used according to previous studies regarding TSPO ligands[48] and adapted depending on the findings in the course of the pilot studies. The treatments were given until the animals died a natural death. Behavioral experiments included distance covered in an open field apparatus,[89] freezing,[89] and balance on a rotor-rod.[90] Spontaneous tremor activity was evaluated using a Hamilton–Kinder sensor in a soundproof ventilated apparatus (Kinder Scientific). The assays for locomotor activity, tremors, and body weight were performed on a weekly basis, together with evaluation of the well-being of the mice. Finally, the day of death was noted. As lifespan data were most pronounced, these are presented in the present description of the results. No adverse effects of any of the drug treatments were noted, neither for specific tests, nor for general observations. Importantly, DMSO had no effect by itself as compared with naive mice or saline-injected mice with various behavioral assays.[20]

SMILES: CN(C)C(=O)Oc1nc(-c2ccccc2)nc2ccccc12 [MGV-1, 2-phenylquinazolin-4-yl dimethylcarbamate]
- Effect on behavior and lifespan of R6-2 mice: did not appear to have an effect
